Measured values reported in BigSolDB 2.1.

O=C(O[C@@H]1Cc2c(O)cc(O)cc2O[C@@H]1c1cc(O)c(O)c(O)c1)c1cc(O)c(O)c(O)c1
solubility (mole fraction) (in 2-butoxyethanol, 278.15 K): 0.00142 | solubility (mole fraction) (in 2-butoxyethanol, 288.15 K): 0.00195 | solubility (mole fraction) (in 2-butoxyethanol, 298.15 K): 0.00268 | solubility (mole fraction) (in 2-butoxyethanol, 308.15 K): 0.00384 | solubility (mole fraction) (in 2-butoxyethanol, 318.15 K): 0.00559 | solubility (mole fraction) (in 2-ethoxyethanol, 278.15 K): 0.00904 | solubility (mole fraction) (in 2-ethoxyethanol, 288.15 K): 0.0151 | solubility (mole fraction) (in 2-ethoxyethanol, 298.15 K): 0.0272 | solubility (mole fraction) (in 2-ethoxyethanol, 308.15 K): 0.0436 | solubility (mole fraction) (in 2-ethoxyethanol, 318.15 K): 0.0701 | solubility (mole fraction) (in 2-methoxyethanol, 278.15 K): 0.0158 | solubility (mole fraction) (in 2-methoxyethanol, 288.15 K): 0.0254 | solubility (mole fraction) (in 2-methoxyethanol, 298.15 K): 0.0365 | solubility (mole fraction) (in 2-methoxyethanol, 308.15 K): 0.0558 | solubility (mole fraction) (in 2-methoxyethanol, 318.15 K): 0.0815 | solubility (mole fraction) (in 2-propoxyethanol, 278.15 K): 0.00275 | solubility (mole fraction) (in 2-propoxyethanol, 288.15 K): 0.00352 | solubility (mole fraction) (in 2-propoxyethanol, 298.15 K): 0.00456 | solubility (mole fraction) (in 2-propoxyethanol, 308.15 K): 0.0059 | solubility (mole fraction) (in 2-propoxyethanol, 318.15 K): 0.00809 | solubility (mole fraction) (in ethanol, 278.15 K): 5.41e-05 | solubility (mole fraction) (in ethanol, 288.15 K): 9.24e-05 | solubility (mole fraction) (in ethanol, 298.15 K): 0.000175 | solubility (mole fraction) (in ethanol, 308.15 K): 0.000387 | solubility (mole fraction) (in ethanol, 318.15 K): 0.000714 | solubility (mole fraction) (in isopropanol, 278.15 K): 6e-06 | solubility (mole fraction) (in isopropanol, 288.15 K): 1.67e-05 | solubility (mole fraction) (in isopropanol, 298.15 K): 5.53e-05 | solubility (mole fraction) (in isopropanol, 308.15 K): 0.000194 | solubility (mole fraction) (in isopropanol, 318.15 K): 0.000481 | solubility (mole fraction) (in methanol, 288.15 K): 1.65e-05 | solubility (mole fraction) (in methanol, 298.15 K): 5.8e-05 | solubility (mole fraction) (in methanol, 308.15 K): 0.000184 | solubility (mole fraction) (in methanol, 318.15 K): 0.000612 | solubility (mole fraction) (in n-butanol, 288.15 K): 1.95e-05 | solubility (mole fraction) (in n-butanol, 298.15 K): 5.41e-05 | solubility (mole fraction) (in n-butanol, 308.15 K): 0.000136 | solubility (mole fraction) (in n-butanol, 318.15 K): 0.000349 | solubility (mole fraction) (in n-hexanol, 278.15 K): 6.8e-07 | solubility (mole fraction) (in n-hexanol, 288.15 K): 3.87e-06 | solubility (mole fraction) (in n-hexanol, 298.15 K): 1.79e-05 | solubility (mole fraction) (in n-hexanol, 308.15 K): 5.35e-05 | solubility (mole fraction) (in n-hexanol, 318.15 K): 0.000138 | solubility (mole fraction) (in n-pentanol, 278.15 K): 9.9e-07 | solubility (mole fraction) (in n-pentanol, 288.15 K): 5.7e-06 | solubility (mole fraction) (in n-pentanol, 298.15 K): 3.01e-05 | solubility (mole fraction) (in n-pentanol, 308.15 K): 8.6e-05 | solubility (mole fraction) (in n-pentanol, 318.15 K): 0.000187 | solubility (mole fraction) (in n-propanol, 278.15 K): 1.22e-05 | solubility (mole fraction) (in n-propanol, 288.15 K): 3.79e-05 | solubility (mole fraction) (in n-propanol, 298.15 K): 9.06e-05 | solubility (mole fraction) (in n-propanol, 308.15 K): 0.000195 | solubility (mole fraction) (in n-propanol, 318.15 K): 0.000656 | solubility (mole fraction) (in sec-butanol, 278.15 K): 5.04e-06 | solubility (mole fraction) (in sec-butanol, 288.15 K): 2.12e-05 | solubility (mole fraction) (in sec-butanol, 298.15 K): 4.97e-05 | solubility (mole fraction) (in sec-butanol, 308.15 K): 0.00014 | solubility (mole fraction) (in sec-butanol, 318.15 K): 0.000636
